Experimental data reported in patent publication US4344949A, “Substituted acyl derivatives of 1,2,3,4-tetrahydroisoquinoline-3-carboxylic acids” (Warner-Lambert Company, priority 1981, dated 1982).
Structures can show the parent of a compound that is named as a salt.

Biological target: T1, guinea pig serum ACE (angiotensin converting enzyme) (Cavia porcellus, UniProt H0UWL7)
T1 construct: ACE from guinea pig serum; from tissue; host or cells: guinea pig serum
T1 sequence (H0UWL7 33-1302): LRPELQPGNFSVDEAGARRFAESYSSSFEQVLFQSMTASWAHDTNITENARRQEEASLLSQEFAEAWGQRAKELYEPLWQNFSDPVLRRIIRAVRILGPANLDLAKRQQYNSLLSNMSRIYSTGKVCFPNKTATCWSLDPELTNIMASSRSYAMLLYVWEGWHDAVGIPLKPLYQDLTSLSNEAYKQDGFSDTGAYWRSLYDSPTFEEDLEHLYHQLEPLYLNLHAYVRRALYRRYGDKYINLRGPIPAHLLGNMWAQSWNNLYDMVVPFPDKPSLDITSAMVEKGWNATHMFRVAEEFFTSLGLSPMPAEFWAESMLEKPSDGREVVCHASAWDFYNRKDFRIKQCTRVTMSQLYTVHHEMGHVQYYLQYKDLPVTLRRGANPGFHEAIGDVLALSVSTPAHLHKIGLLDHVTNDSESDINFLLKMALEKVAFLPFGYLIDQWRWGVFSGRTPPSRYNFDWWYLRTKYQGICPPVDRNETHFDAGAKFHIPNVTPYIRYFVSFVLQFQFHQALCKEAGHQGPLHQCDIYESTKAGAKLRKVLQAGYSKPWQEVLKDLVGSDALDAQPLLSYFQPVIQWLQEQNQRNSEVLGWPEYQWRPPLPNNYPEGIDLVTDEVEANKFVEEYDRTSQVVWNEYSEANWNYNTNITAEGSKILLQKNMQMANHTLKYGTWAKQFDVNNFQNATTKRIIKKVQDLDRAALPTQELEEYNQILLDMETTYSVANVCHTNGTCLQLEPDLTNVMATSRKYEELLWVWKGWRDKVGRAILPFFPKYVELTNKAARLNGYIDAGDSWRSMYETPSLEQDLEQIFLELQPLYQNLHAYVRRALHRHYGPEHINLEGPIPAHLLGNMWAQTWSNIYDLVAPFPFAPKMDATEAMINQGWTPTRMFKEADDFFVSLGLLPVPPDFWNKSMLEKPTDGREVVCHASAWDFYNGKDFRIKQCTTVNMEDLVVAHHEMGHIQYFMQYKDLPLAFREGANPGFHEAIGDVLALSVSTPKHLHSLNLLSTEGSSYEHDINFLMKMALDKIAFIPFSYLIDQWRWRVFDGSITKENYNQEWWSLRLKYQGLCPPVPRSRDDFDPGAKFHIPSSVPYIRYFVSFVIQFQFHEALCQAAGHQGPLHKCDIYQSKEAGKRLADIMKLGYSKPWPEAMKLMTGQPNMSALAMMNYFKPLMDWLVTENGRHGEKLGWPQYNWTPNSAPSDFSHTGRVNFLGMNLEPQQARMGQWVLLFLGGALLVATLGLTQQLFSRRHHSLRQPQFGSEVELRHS
Experiment: In vitro ACE assay (angiotensin converting enzyme inhibitory activity, guinea pig serum ACE, 3H-hippuryl-glycyl-glycine substrate)
Format: biochemical
Conditions: 10 min preincubation, 60 min incubation at 37° C., S,S,S configuration, hydrochloride salt (+) or maleate salt (#) by footnote, read-out: ACE I Activity (in vitro) IC50 Molar Conc.
Method: In vitro ACE Assay: Angiotensin converting enzyme (ACE) inhibitory activity was determined by assaying guinea pig serum ACE in the presence and absence of the test compound. ACE from guinea pig serum and the test compounds were preincubated for 10 minutes before the addition of the labelled substrate ^3 H-hippuryl-glycyl-glycine. After a 60 minute incubation of 37° C. the reaction was stopped by the addition of 0.1 N HCl. ACE cleaves the hippuryl-glycyl bond to form the dipeptide glycyl-glycine and ^3 H-hippuric acid. The ^3 H-hippuric acid was then extracted with ethyl acetate and the ACE activity of a given sample calculated as the amount of ^3 H-hippuric acid generated.

Row | IC50 [nM] | SMILES
1 | 3200 | CCOC(=O)[C@H](CCc1ccccc1)N[C@@H](C)C(=O)N1Cc2ccccc2C[C@H]1C(=O)OC(C)(C)C [R=t-Bu, R2=Et, X=H, Y=H]
2 | 2000 | CCOC(=O)[C@H](CCc1ccccc1)N[C@@H](C)C(=O)N1Cc2ccccc2C[C@H]1C(=O)OCc1ccccc1 [R=PhCH2, R2=Et, X=H, Y=H, 2-[2-[[1-(Ethoxycarbonyl)-3-phenylpropyl]amino]-1-oxopropyl]-1,2,3,4-tetrahydro-3-isoquinolinecarboxylic Acid, Phenylmethyl Ester, Maleate (S,S,S)]
3 | 300 | CCOC(=O)[C@H](CCc1ccccc1)N[C@@H](C)C(=O)N1Cc2cc(OC)c(OC)cc2C[C@H]1C(=O)OCc1ccccc1 [R=PhCH2, R2=Et, X=OCH3, Y=OCH3, 2-[2-[[1-(Ethoxycarbonyl)-3-phenylpropyl]amino]-1-oxopropyl]-1,2,3,4-tetrahydro-6,7-dimethoxy-3-isoquinolinecarboxylic Acid, Phenylmethyl Ester, Maleate (S,S,S)]
4 | 5.6 | CCOC(=O)[C@H](CCc1ccccc1)N[C@@H](C)C(=O)N1Cc2cc(OC)c(OC)cc2C[C@H]1C(=O)O [R=H, R2=Et, X=OCH3, Y=OCH3, 2-[2-[[1-(Ethoxycarbonyl)-3-phenylpropyl]amino]-1-oxopropyl]-1,2,3,4-tetrahydro-6,7-dimethoxy-3-isoquinolinecarboxylic Acid, Hydrochloride, Hydrate (S,S,S)]
